Data as given in PubChem BioAssay (NCI).
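Method: 48-hour compound exposure of cells in 96-well plates, five concentrations, linear interpolation of endpoints. Definition used: TGI = concentration required for complete inhibition of growth.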

How the values were obtained:
Assay in all cases: growth of human tumour cells (NCI), 48 h
NCI-H23 lung = test system: NCI-H23 lung
SF-268 CNS = test system: SF-268 CNS
786-0 renal = test system: 786-0 renal
LXFL 529 NSCLC = test system: LXFL 529 NSCLC
SK-OV-3 ovarian = test system: SK-OV-3 ovarian
NCI-H460 lung = test system: NCI-H460 lung
M19-MEL melanoma = test system: M19-MEL melanoma
M14 melanoma = test system: M14 melanoma
COLO 205 colon = test system: COLO 205 colon
HCT-116 colon = test system: HCT-116 colon
DMS 114 small cell lung = test system: DMS 114 small cell lung
RPMI-8226 leukemia = test system: RPMI-8226 leukemia
A498 renal = test system: A498 renal
HCC-2998 colon = test system: HCC-2998 colon
UACC-62 melanoma = test system: UACC-62 melanoma
SK-MEL-28 melanoma = test system: SK-MEL-28 melanoma
K-562 leukemia = test system: K-562 leukemia
U251 CNS = test system: U251 CNS
SK-MEL-2 melanoma = test system: SK-MEL-2 melanoma
DLD-1 colon = test system: DLD-1 colon
TK-10 renal = test system: TK-10 renal
A549 NSCLC = test system: A549 NSCLC
HL-60(TB) leukemia = test system: HL-60(TB) leukemia
DMS 273 small cell lung = test system: DMS 273 small cell lung
CCRF-CEM leukemia = test system: CCRF-CEM leukemia
HOP-92 NSCLC = test system: HOP-92 NSCLC
SNB-78 CNS = test system: SNB-78 CNS
OVCAR-3 ovarian = test system: OVCAR-3 ovarian
UACC-257 melanoma = test system: UACC-257 melanoma
SF-295 CNS = test system: SF-295 CNS
SW-620 colon = test system: SW-620 colon
KM20L2 colon = test system: KM20L2 colon
CAKI-1 renal = test system: CAKI-1 renal
OVCAR-8 ovarian = test system: OVCAR-8 ovarian
ACHN renal = test system: ACHN renal
EKVX NSCLC = test system: EKVX NSCLC
HCT-15 colon = test system: HCT-15 colon
LOX IMVI melanoma = test system: LOX IMVI melanoma
OVCAR-5 ovarian = test system: OVCAR-5 ovarian
SN12C renal = test system: SN12C renal
UO-31 renal = test system: UO-31 renal
KM12 colon = test system: KM12 colon
OVCAR-4 ovarian = test system: OVCAR-4 ovarian
RXF 393 renal = test system: RXF 393 renal
SK-MEL-5 melanoma = test system: SK-MEL-5 melanoma
HT29 colon = test system: HT29 colon
NCI-H226 lung = test system: NCI-H226 lung
NCI-H522 lung = test system: NCI-H522 lung
IGROV1 ovarian = test system: IGROV1 ovarian
MALME-3M melanoma = test system: MALME-3M melanoma
SF-539 CNS = test system: SF-539 CNS
SNB-19 CNS = test system: SNB-19 CNS
HOP-62 NSCLC = test system: HOP-62 NSCLC
MOLT-4 leukemia = test system: MOLT-4 leukemia
SNB-75 CNS = test system: SNB-75 CNS

Q: For CCOc1ccc(-c2oc(/C=N/NS(=O)(=O)c3ccc(C)cc3)c([N+](=O)[O-])c2-c2ccc(OCC)cc2)cc1, which TGI (NCI-H23 lung) is on record?
A: 31.4 µM

Q: And the TGI (SF-268 CNS)?
A: 50.5 µM

Q: What about the TGI (786-0 renal) of the same molecule?
A: 29.7 µM

Q: And the TGI (LXFL 529 NSCLC)?
A: 26.6 µM

Q: And the TGI (SK-OV-3 ovarian)?
A: 42.7 µM

Q: What about the TGI (NCI-H460 lung) of the same molecule?
A: 29.7 µM

Q: And the TGI (M19-MEL melanoma)?
A: 13.3 µM

Q: What about the TGI (M14 melanoma) of the same molecule?
A: 27.7 µM

Q: What about the TGI (COLO 205 colon) of the same molecule?
A: 37.2 µM

Q: What about the TGI (HCT-116 colon) of the same molecule?
A: 3.92 µM

Q: And the TGI (DMS 114 small cell lung)?
A: 12 µM

Q: And the TGI (RPMI-8226 leukemia)?
A: 5.12 µM

Q: And the TGI (A498 renal)?
A: 41.4 µM

Q: What about the TGI (HCC-2998 colon) of the same molecule?
A: 31.1 µM

Q: And the TGI (UACC-62 melanoma)?
A: 26 µM

Q: And the TGI (SK-MEL-28 melanoma)?
A: 28.3 µM

Q: What about the TGI (K-562 leukemia) of the same molecule?
A: > 56.3 µM

Q: What about the TGI (U251 CNS) of the same molecule?
A: 21.2 µM

Q: What about the TGI (SK-MEL-2 melanoma) of the same molecule?
A: 44.8 µM

Q: And the TGI (DLD-1 colon)?
A: 17.6 µM

Q: What about the TGI (TK-10 renal) of the same molecule?
A: 70.3 µM

Q: And the TGI (A549 NSCLC)?
A: 65.6 µM

Q: What about the TGI (HL-60(TB) leukemia) of the same molecule?
A: > 52.9 µM

Q: What about the TGI (DMS 273 small cell lung) of the same molecule?
A: 23 µM

Q: What about the TGI (CCRF-CEM leukemia) of the same molecule?
A: 8.04 µM

Q: What about the TGI (HOP-92 NSCLC) of the same molecule?
A: 31.5 µM

Q: What about the TGI (SNB-78 CNS) of the same molecule?
A: 34.6 µM

Q: And the TGI (OVCAR-3 ovarian)?
A: 43.3 µM

Q: What about the TGI (UACC-257 melanoma) of the same molecule?
A: 45 µM

Q: And the TGI (SF-295 CNS)?
A: 38.4 µM

Q: What about the TGI (SW-620 colon) of the same molecule?
A: 7.76 µM

Q: What about the TGI (KM20L2 colon) of the same molecule?
A: 31.9 µM

Q: And the TGI (CAKI-1 renal)?
A: 43.1 µM

Q: And the TGI (OVCAR-8 ovarian)?
A: 50 µM

Q: And the TGI (ACHN renal)?
A: 23.7 µM

Q: What about the TGI (EKVX NSCLC) of the same molecule?
A: 80 µM

Q: And the TGI (HCT-15 colon)?
A: 18.4 µM

Q: What about the TGI (LOX IMVI melanoma) of the same molecule?
A: 12.6 µM

Q: What about the TGI (OVCAR-5 ovarian) of the same molecule?
A: 24.1 µM

Q: What about the TGI (SN12C renal) of the same molecule?
A: 27.5 µM

Q: And the TGI (UO-31 renal)?
A: 28.7 µM

Q: What about the TGI (KM12 colon) of the same molecule?
A: 25.3 µM

Q: And the TGI (OVCAR-4 ovarian)?
A: 25.4 µM

Q: What about the TGI (RXF 393 renal) of the same molecule?
A: 29.3 µM

Q: And the TGI (SK-MEL-5 melanoma)?
A: 21.2 µM

Q: And the TGI (HT29 colon)?
A: 20.7 µM

Q: What about the TGI (NCI-H226 lung) of the same molecule?
A: 28.4 µM

Q: And the TGI (NCI-H522 lung)?
A: 20.6 µM

Q: What about the TGI (IGROV1 ovarian) of the same molecule?
A: 32.3 µM

Q: And the TGI (MALME-3M melanoma)?
A: 37.1 µM

Q: What about the TGI (SF-539 CNS) of the same molecule?
A: 30.7 µM

Q: What about the TGI (SNB-19 CNS) of the same molecule?
A: 43.1 µM

Q: And the TGI (HOP-62 NSCLC)?
A: > 64.3 µM

Q: And the TGI (MOLT-4 leukemia)?
A: > 24.8 µM

Q: What about the TGI (SNB-75 CNS) of the same molecule?
A: 35.2 µM
